From US9493421B2, “Acridinedione derivatives for treating pigmentation disorders and ageing of the skin” (PIERRE FABRE DERMO-COSMETIQUE, priority 2011, dated 2016) come the findings set out here.

Data set [1] can be described thus: Log P (octanol/water partition coefficient). It counts as physicochemical. An excerpt: Log P, also called Log Kow, is a measurement of the differential solubility of chemical compounds in two solvents (octanol/water partition coefficient).
Log P is equal to the logarithm of the ratio of the concentrations of the examined substance in octanol and in water. Log P=Log(Coct/Cwater). With this value it is possible to assess the hydrophilic or hydrophobic (lipophilic) nature of a molecule. If Log P is positive and very high, this means that the molecule under consideration is much more soluble in octanol than in water, which reflects its lipophilic nature, and conversely. A value of Log P=0 means that the molecule is distributed equally between the two phases and Coct=Cwater (C. Hansch, J. F. Quinlan, G. L. Lawrence, Linear free energy relationship between partition coefficients and the aqueous solubility of organic liquids, J. Org. Chem., 33 (1968), 347-350; C. Hansch, A. Leo, Exploring QSAR—Fundamentals and Applications in Chemistry and Biology, American Chemical Society, Washington, 1995; J. Sangster, Octanol—Water Partition Coefficients: Fundamentals and Physical Chemistry, Wiley, Chichester, 1997; W. Jorgensen, E. Duffy, Advanced Drug Delivery Reviews, (54), 2002, 355-366).

Another data set has as its system B16-F10 cells. Nature of the data set: Assay of melanin in B16-F10 cells (colorimetric, α-MSH stimulated). The class given is cell-based, murine. Conditions: 0.1 μM α-MSH. As for the experimental part:
It is a test to measure the synthesis of melanin by colorimetric assay on a murine melanoma cell line: line B16-F10. With this test it is possible to evaluate the depigmenting or propigmenting property of active ingredients.
The B16-F10 cells were seeded in 96-well plates in DMEM medium supplemented with FCS (foetal calf serum), and incubated 24 h at 37° C., 5% CO2. The cells were stimulated with 0.1 μM α-MSH (to stimulate melanin synthesis, the observed stimulation being about 150%) and treated 72 h with the active ingredients to be assayed. Each concentration of active ingredient was assayed at least in triplicate. Total melanin and intracellular melanin dissolved in lysis buffer were assayed by absorbance read-off at 405 nm. The total proteins were assayed in the lysate and the results expressed in mg melanin/mg proteins. Percentage activity was calculated as follows: […]
A negative value indicates inhibition of the melanin synthesis and translates depigmenting activity of the compound, whereas a positive value indicates induced melanin synthesis and translates a propigmenting property of the molecule.
• B16-F10 cell lines between P10 and P20 (murine melanocytes) (ATCC, CRL-6475); • reagents: DMEM without Phenol Red (GIBCOBRL, 118800-028), 200 mM glutamax-I supplement (GIBCOBRL, 35050-038), glucose (SIGMA, G7021), PBS (GIBCOBRL, 14190-094), foetal calf serum (Invitrogen, 10270-098), trypsin-EDTA (GIBCOBRL, 25300-054), NaOH (Sigma, S8045-500G), DMSO (Sigma, 471267-11), Nle, Phe-Melanocyte Stimulating Hormone (Sigma, M-8764), melanin (Sigma, M-0418), BCA-COPPER (SIGMA, B9643 and C2284), BSA (SIGMA, P0914) B) Test to Study Anti-Oxidizing Capability Using Chemiluminescence (Photochem Analytic Jena) Principle

Data set [2] is described as follows: Test to study anti-oxidizing capability using chemiluminescence (Photochem Analytic Jena). The class given is biochemical. Conditions: quantity of sample needed for activity equivalent to 1 μg Trolox, superoxide anion trapping. As for the experimental part:
This test is used to determine the anti-oxidizing capability of the molecules. It is a method which generates free radicals via photochemical signal. The intensity of oxidation is 1000 times higher than obtained under normal conditions.
Detection is performed using chemiluminescence. This allows evaluation of water-soluble and liposoluble antioxidant molecules or extracts
The results are expressed in equivalent quantity of vitamin C or Trolox (6-hydroxy-2,5,7,8-tetramethylchroman-2-carboxylic acid) respectively. Sensitivity is in the order of one nanomole.
The anti-oxidizing activity studied in this test represents the capability of specifically trapping superoxide anions by chemiluminescence.
The quantified results are expressed in Trolox equivalent (standard) or in “μg of product per 1 μg of Trolox”. This means that a quantity x of sample is needed to obtain activity equivalent to the activity detected with 1 μg of standard. It is the antioxidizing power in relation to a reference; this avoids having to take into account the concentrations tested.
The superoxide radical: O2^∘^− is generated by photochemical reaction: L+hv(UV)+O2→L*O2→L^∘^++O2^∘^− • L*: luminol in the excited state L^∘+: luminol radical Signal Detection
Part of the superoxide anions are inhibited by the antioxidants. The remaining free radicals are quantified by chemiluminescence. L^∘^++O2^∘^−→N2+AP*^2−→AP^2−+hv (luminescence)
AP*^2−: aminophthalate in the excited state

[3] abbreviates: Mus musculus, B16-F10, 72 h, negative = inhibition, positive = stimulation, read-out: Melanin synthesis on B16.

By logP is commonly meant a log measure of how a compound divides between an organic and an aqueous phase. Lower therefore signals a more hydrophilic compound. The melting point is the temperature, or range, at which the solid turns liquid. The compound `CCCCCCCCN1C2=C(C(=O)CC(C)(C)C2)C(c2ccc(O)c(OC)c2)C2=C1CC(C)(C)CC2=O` [Example 18, 9-(4-hydroxy-3-methoxyphenyl)-3,3,6,6-tetramethyl-10-octyl-3,4,6,7,9,10-hexahydroacridine-1,8(2H,5H)-dione] gave a melting point of 154.2 °C. This compound showed a logP in data set [1] of 4.63. For the same compound, the activation at 5 µM in the data set with B16-F10 cells (setting [3]) is -59%.
`CCN1C2=C(C(=O)CC(C)(C)C2)C(c2ccc(O)c(OC)c2)C2=C1CC(C)(C)CC2=O` [Example 12, 10-ethyl-9-(4-hydroxy-3-methoxyphenyl)-3,3,6,6-tetramethyl-3,4,6,7,9,10-hexahydroacridine-1,8(2H,5H)-dione] returned a logP in data set [1] of 2.06. Also, the activation at 50 µM in the data set on B16-F10 cells (setting [3]) stood at 72%.
Compound `CCCCCCCCCCCN1C2=C(C(=O)CC(C)(C)C2)C(c2ccc(O)c(OC)c2)C2=C1CC(C)(C)CC2=O` [Example 20, 9-(4-hydroxy-3-methoxyphenyl)-3,3,6,6-tetramethyl-10-undecyl-3,4,6,7,9,10-hexahydroacridine-1,8(2H,5H)-dione] yielded a melting point of 118.9 °C. The logP in data set [1] worked out at 5.89. In the data set with B16-F10 cells (setting [3]), the activation at 5 µM is -57%.
The compound `CCCCN1C2=C(C(=O)CC(C)(C)C2)C(c2ccc(O)c(OC)c2)C2=C1CC(C)(C)CC2=O` [Example 14, 10-butyl-9-(4-hydroxy-3-methoxyphenyl)-3,3,6,6-tetramethyl-3,4,6,7,9,10-hexahydroacridine-1,8(2H,5H)-dione] showed a log partition coefficient (logP) in data set [1] of 2.97. Besides, the activation at 20 µM in the data set on B16-F10 cells (setting [3]) amounted to 45%.
As for `CCCCCCCCCN1C2=C(C(=O)CC(C)(C)C2)C(c2ccc(O)c(OC)c2)C2=C1CC(C)(C)CC2=O` [Example 19, 9-(4-hydroxy-3-methoxyphenyl)-3,3,6,6-tetramethyl-10-nonyl-3,4,6,7,9,10-hexahydroacridine-1,8(2H,5H)-dione], the melting point worked out at 127 °C. This compound also yielded a lipophilicity (logP) in data set [1] of 5.05. Moreover, the activation at 5 µM in the data set on B16-F10 cells (setting [3]) was -42%.
Compound `COc1cc(C2C3=C(CC(C)(C)CC3=O)N(CCc3ccccc3)C3=C2C(=O)CC(C)(C)C3)ccc1O` [Example 22, 9-(4-hydroxy-3-methoxyphenyl)-3,3,6,6-tetramethyl-10-phenethyl-3,4,6,7,9,10-hexahydroacridine-1,8(2H,5H)-dione] had a logP in data set [1] of 3.74.
As to `CCCCCCN1C2=C(C(=O)CC(C)(C)C2)C(c2ccc(O)c(OC)c2)C2=C1CC(C)(C)CC2=O` [Example 16, 10-hexyl-9-(4-hydroxy-3-methoxyphenyl)-3,3,6,6-tetramethyl-3,4,6,7,9,10-hexahydroacridine-1,8(2H,5H)-dione], the melting point was 177.7 °C. The compound also came in with a logP in data set [1] of 3.8.
On to `CCCCCN1C2=C(C(=O)CC(C)(C)C2)C(c2ccc(O)c(OC)c2)C2=C1CC(C)(C)CC2=O` [Example 15, 9-(4-hydroxy-3-methoxyphenyl)-3,3,6,6-tetramethyl-10-pentyl-3,4,6,7,9,10-hexahydroacridine-1,8(2H,5H)-dione], for which the melting point is 194.5 °C. For the same compound, the lipophilicity (logP) in data set [1] amounted to 3.38. The activation at 50 µM with B16-F10 cells (setting [3]) stood at 42%.
For the compound `CN1C2=C(C(=O)CC(C)(C)C2)C(c2ccc(O)c(O)c2)C2=C1CC(C)(C)CC2=O` [Example 4, 9-(3,4-dihydroxyphenyl)-3,3,6,6,10-pentamethyl-3,4,6,7,9,10-hexahydroacridine-1,8(2H,5H)-dione], the “μg sample per 1 μg of Trolox” value in data set [2] is 0.017 μg sample per 1 μg of Trolox.
For the compound “Nle, Phe-Melanocyte Stimulating Hormone [α-MSH, reference compound]”, in the data set on B16-F10 cells (B16-F10 cells), the “Stimulation of melanin synthesis” value is “about 150%”.
On to `COc1cc(C2C3=C(CC(C)(C)CC3=O)N(Cc3ccccc3)C3=C2C(=O)CC(C)(C)C3)ccc1O` [Example 21, 10-benzyl-9-(4-hydroxy-3-methoxyphenyl)-3,3,6,6-tetramethyl-3,4,6,7,9,10-hexahydroacridine-1,8(2H,5H)-dione], for which the logP in data set [1] came to 3.46. The activation at 100 µM with B16-F10 cells (setting [3]) turned out to be 48%.
In data set [1], `COc1cc(C2C3=C(CC(C)(C)CC3=O)N(CC(c3ccccc3)c3ccccc3)C3=C2C(=O)CC(C)(C)C3)ccc1O` [Example 24, 10-(2,2-diphenylethyl)-9-(4-hydroxy-3-methoxyphenyl)-3,3,6,6-tetramethyl-3,4,6,7,9,10-hexahydroacridine-1,8(2H,5H)-dione] yielded a logP of 5.32. Moreover, the activation at 5 µM in the data set on B16-F10 cells (setting [3]) was -37%.
Compound `COc1cc(C2C3=C(CC(C)(C)CC3=O)NC3=C2C(=O)CC(C)(C)C3)ccc1O` [Example 10, 9-(4-hydroxy-3-methoxyphenyl)-3,3,6,6-tetramethyl-3,4,6,7,9,10-hexahydroacridine-1,8(2H,5H)-dione] had a melting point of 309.8 °C. This compound returned a log partition coefficient (logP) in data set [1] of 1.49. In the data set on B16-F10 cells (setting [3]), the activation at 100 µM is 29%.
`CCCN1C2=C(C(=O)CC(C)(C)C2)C(c2ccc(O)c(OC)c2)C2=C1CC(C)(C)CC2=O` [Example 13, 9-(4-hydroxy-3-methoxyphenyl)-3,3,6,6-tetramethyl-10-propyl-3,4,6,7,9,10-hexahydroacridine-1,8(2H,5H)-dione] showed a melting point of 259.5 °C. Further, the logP in data set [1] turned out to be 2.55. In addition, the activation at 50 µM in the data set with B16-F10 cells (setting [3]) amounted to 43%.
On to `CCCCCCCN1C2=C(C(=O)CC(C)(C)C2)C(c2ccc(O)c(OC)c2)C2=C1CC(C)(C)CC2=O` [Example 17, 10-heptyl-9-(4-hydroxy-3-methoxyphenyl)-3,3,6,6-tetramethyl-3,4,6,7,9,10-hexahydroacridine-1,8(2H,5H)-dione], for which the melting point turned out to be 154.8 °C. The compound further showed a logP in data set [1] of 4.22. For the same compound, the activation at 20 µM in the data set on B16-F10 cells (setting [3]) was -68%.
For the compound `COc1cc(C2C3=C(CC(C)(C)CC3=O)N(C)C3=C2C(=O)CC(C)(C)C3)ccc1O` [Example 11, 9-(4-hydroxy-3-methoxyphenyl)-3,3,6,6,10-pentamethyl-3,4,6,7,9,10-hexahydroacridine-1,8(2H,5H)-dione], the lipophilicity (logP) in data set [1] turned out to be 1.72. Further, the activation at 100 µM in the data set with B16-F10 cells (setting [3]) worked out at 47%.
Compound `COc1cc(C2C3=C(CC(C)(C)CC3=O)N(CCCc3ccccc3)C3=C2C(=O)CC(C)(C)C3)ccc1O` [Example 23, 9-(4-hydroxy-3-methoxyphenyl)-3,3,6,6-tetramethyl-10-(3-phenylpropyl)-3,4,6,7,9,10-hexahydroacridine-1,8(2H,5H)-dione] returned a lipophilicity (logP) in data set [1] of 4.15. In the data set with B16-F10 cells (Mus musculus, B16-F10, at 10 μM, 72 h, negative = inhibition, positive = stimulation, read-out: Melanin synthesis on B16), the activation at 10 µM was -37%.
